The values below come from PMC9721424, “Novel N-methylsulfonyl-indole derivatives: biological activity and COX-2/5-LOX inhibitory effect with improved gastro protective profile and reduced cardio vascular risks” (Journal of Enzyme Inhibition and Medicinal Chemistry, 2022).

One series has as its target T1, COX-2 (Ovis aries, UniProt P79208).
T1 sequence (P79208 17-603): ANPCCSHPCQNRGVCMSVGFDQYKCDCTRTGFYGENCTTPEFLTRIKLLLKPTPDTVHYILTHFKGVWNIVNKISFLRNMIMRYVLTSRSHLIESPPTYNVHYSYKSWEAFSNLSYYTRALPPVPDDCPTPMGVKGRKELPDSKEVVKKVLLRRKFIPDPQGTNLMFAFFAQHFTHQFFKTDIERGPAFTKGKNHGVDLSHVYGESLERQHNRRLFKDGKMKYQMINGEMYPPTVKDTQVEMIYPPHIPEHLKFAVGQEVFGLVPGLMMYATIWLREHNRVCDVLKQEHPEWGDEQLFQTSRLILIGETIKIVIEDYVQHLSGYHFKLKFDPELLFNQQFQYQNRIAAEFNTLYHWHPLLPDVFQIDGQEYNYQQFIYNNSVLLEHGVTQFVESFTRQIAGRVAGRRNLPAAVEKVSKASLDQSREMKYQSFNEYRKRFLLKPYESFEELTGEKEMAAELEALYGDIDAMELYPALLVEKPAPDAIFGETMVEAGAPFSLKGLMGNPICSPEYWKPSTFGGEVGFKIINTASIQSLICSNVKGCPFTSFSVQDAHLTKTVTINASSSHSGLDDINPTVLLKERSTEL
Kind of series: COX-2 inhibition, enzyme immune assay (EIA) kit. The class given is biochemical, ovine. The following applies: for S.I (IC50 COX-1/IC50 COX-2): COX-2 selectivity index; for SI: lab report, COX1/COX2.

The next series concerns the target T2, ovine COX-1 (Ovis aries, UniProt P05979).
T2 sequence (P05979 25-600): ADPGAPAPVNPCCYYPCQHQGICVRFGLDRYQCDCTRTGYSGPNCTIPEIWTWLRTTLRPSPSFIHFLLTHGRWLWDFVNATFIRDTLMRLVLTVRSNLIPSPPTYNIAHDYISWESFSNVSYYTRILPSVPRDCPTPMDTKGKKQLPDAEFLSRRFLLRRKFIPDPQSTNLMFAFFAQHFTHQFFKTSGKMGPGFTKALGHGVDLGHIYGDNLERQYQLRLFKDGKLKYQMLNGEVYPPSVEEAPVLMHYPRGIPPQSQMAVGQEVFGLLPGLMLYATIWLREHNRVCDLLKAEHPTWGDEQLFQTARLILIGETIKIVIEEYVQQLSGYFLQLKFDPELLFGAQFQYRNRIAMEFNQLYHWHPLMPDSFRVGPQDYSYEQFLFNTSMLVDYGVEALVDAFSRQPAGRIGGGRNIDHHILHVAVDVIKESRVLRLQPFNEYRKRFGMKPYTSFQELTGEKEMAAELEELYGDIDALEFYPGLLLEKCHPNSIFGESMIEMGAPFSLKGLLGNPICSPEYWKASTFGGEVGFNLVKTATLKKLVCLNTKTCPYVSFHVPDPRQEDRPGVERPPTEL
Put plainly: COX-1 inhibition, enzyme immune assay (EIA) kit.

Another series can be described thus: DPPH free radical assay. The format is biochemical. The following applies: 540 nm, relative to Trolox; for DPPH test results (µM trolox equivalent/ 1mg sample ± SD): 30 min. As for the experimental part:
Preparation of samples was occurred at the following concentrations: Samples 3a, 4a, 5b, 5d and 5e at final concentrations of 0.5 mg/ml in methanol: DMSO 9:1 v/v. Samples 4b and 4d at final concentrations 0.025 mg/ml in methanol: DMSO 9:1 v/v, sample 5a at final concentrations 0.25 mg/ml in methanol: DMSO 9:1 v/v, Sample 4c, 5c and 4e at final concentrations 0.05 mg/ml in methanol: DMSO 9:1 v/v, sample 3b at final concentration 0.75 mg/ml methanol: DMSO 9:1 v/v. A stock solution of 100 µM concentration of Trolox, a standard used in this experiment, was prepared in methanol from which seven concentrations were prepared, including 50, 40, 30, 20, 15, 10 and 5 µM.
The DPPH (2,2-diphenyl-1-picryl-hydrazyl-hydrate) free radical assay was carried out according to the method of Boly et al. 2016[39]. Briefly, freshly prepared DPPH reagent (100 µl, 0.1% in methanol) was added to 100 µl of the sample on 96 well plates (n = 6). The reaction was incubated at room temp for 30 min in the dark. After completion of the incubation time, the reduction in DPPH colour intensity was measured at 540 nm. Data obtained was represented as means ± SD, according to the following equation, percentage inhibition = [(Average absorbance of blank – average absorbance of the test)/(Average absorbance of blank)] *100. The results were recorded using a microplate reader, FluoStar Omega.
Microsoft Excel® was used to analyse the obtained results. The IC50 values were calculated using Graph pad Prism 6® by converting the concentrations to their logarithmic value and selecting the non-linear inhibitor regression equation (log (inhibitor) vs. normalised response – variable slope equation). The methods used and the final test report (R-SO7320) were obtained from Nawah Scientific.

In series [1] the test system is TNF-α in RAW264.7 macrophage cells. Put plainly: In vitro measurement of TNF-α in RAW264.7 macrophage cells (RT-qPCR). The class given is cell-based. The source says:
Both Lipopolysaccharides (LPS) and hispidin were purchased from Sigma (Sigma-Aldrich, St. Louis, MO, USA)[40]. The foetal bovine serum (FBS) and Dulbecco’s modified Eagle’s medium (DMEM) were purchased from Hyclone (General Electric Healthcare Life Sciences, Mississauga, Canada), penicillin streptomycin (P/S) was purchased from Solarbio (Solarbio life sciences, Beijing, P. R. China). Results of all in vitro anti-inflammatory screening were obtained from the confirmatory diagnostic unit, VACSERA, Egypt.
DMEM was used to cultivate the macrophage cells RAW264.7 (Shanghai BOGO Industrial Co., Ltd., Shanghai, China), and supplemented with 10% FBS and 1% P/S (100 U/ml and […], respectively). […] They were treated with various concentrations of hispidin, then with 1 μg/ml LPS for the indicated time.
PBS (1 ml/well) was used to wash the cells in 24-well plates. […] For the experiments, CL Buffer included MgCl2 (M1028; Sigma) or RNasin Plus RNase Inhibitor (N2615; Promega). Before use, both Bio-Rad SPR and CL buffer were equilibrated to room temperature. […] Carefully, the resulting lysates were collected and either analysed immediately or stored frozen ([…]).
RT-qPCR analysis was performed in one-step SYBR Green RT-qPCR. […] A CFX96 real-time PCR instrument (Bio-Rad) was used under the following protocol: 50uC for 10 min, 95uC for 5 min, 95uC for 10 s/61uC for 15 s/72uC for 30 s.
Total RNA purified from cells was used as an RT-qPCR quantification standard.
A general note: In qPCR the cycle at which signal appears reflects the starting amount.

In another series the target is T3, 5-LOX enzyme (Homo sapiens, UniProt P09917).
T3 construct: purchased Cayman Chemical K980-100
T3 sequence (P09917 1-674): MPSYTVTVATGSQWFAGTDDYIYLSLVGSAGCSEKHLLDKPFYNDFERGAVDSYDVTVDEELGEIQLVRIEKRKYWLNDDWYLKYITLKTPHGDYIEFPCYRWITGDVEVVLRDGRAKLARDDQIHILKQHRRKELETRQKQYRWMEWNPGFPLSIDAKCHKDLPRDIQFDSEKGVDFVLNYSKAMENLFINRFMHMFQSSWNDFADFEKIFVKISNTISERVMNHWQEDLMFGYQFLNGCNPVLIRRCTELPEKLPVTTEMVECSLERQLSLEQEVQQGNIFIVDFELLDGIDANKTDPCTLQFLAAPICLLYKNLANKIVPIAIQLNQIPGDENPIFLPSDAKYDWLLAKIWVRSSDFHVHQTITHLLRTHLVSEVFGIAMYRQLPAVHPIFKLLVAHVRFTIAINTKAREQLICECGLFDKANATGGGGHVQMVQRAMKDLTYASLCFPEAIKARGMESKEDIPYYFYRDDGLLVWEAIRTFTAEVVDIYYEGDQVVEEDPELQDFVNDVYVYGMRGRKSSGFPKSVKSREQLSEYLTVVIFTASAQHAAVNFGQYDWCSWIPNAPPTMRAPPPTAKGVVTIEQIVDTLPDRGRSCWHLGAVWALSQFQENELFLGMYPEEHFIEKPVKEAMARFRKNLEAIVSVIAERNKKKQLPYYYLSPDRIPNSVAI
Kind of series: 5-LOX inhibition, Human Lipoxygenase Inhibitor Screening Assay (EIA) kit. The class given is biochemical. As for the experimental part: The ability of the test compounds to inhibit the 5-LOX enzyme (IC50 value, μM) was detected using the Cayman Human Lipoxygenase Inhibitor Screening Assay (EIA) kit (catalog no. K980-100, Cayman Chemical). The IC50 values of test compounds were measured in µM according to the manufacturer’s instructions and reported method.

A further series deals with stomach. Kind of series: Histopathological examination of stomach. The following applies: rat, in vivo. The format is in vivo, rats. The procedure: In brief, the stomachs of each animal group’s rat were fixed in 10% neutral buffered formalin for 48 h. The sections were then dehydrated, cleared, fixed in paraffin, sectioned ([…]), and stained with H&E stain.

The structures appear in SMILES notation. Like-named read-outs stand apart in the source and are kept apart here.

Excerpt for ovine COX-1: Colorimetric enzyme immunoassay (EIA) kits were done to screen for the isozyme-specific inhibition.

As for `CS(=O)(=O)n1cc(/C=N/NC(=O)Nc2ccccc2)c2ccccc21` [Compound 3b, (E)-2{[1-(methylsulfonyl)-1H-indol-3yl]methylene}-N-phenylhydrazinecarboxamide], the melting point (usually the temperature of the solid-liquid transition) was 234 to 236 °C. Besides, on COX-2, the “S.I (IC50 COX-1/IC50 COX-2)” value worked out at 1.46 and the SI is on record as 1.455. On ovine COX-1 (IC50 COX-1), the IC50 (usually the concentration at which inhibition is half-maximal) was determined as 32 ± 0.91 µM. At ovine COX-1 (conc 0.1 (μM)), this compound registered a COX1 %inh of 3.48%. Besides, at ovine COX-1 (conc 1 (μM)), the COX1 %inh is reported as 11.6%. The COX1 %inh at ovine COX-1 (conc 10 (μM)) came out at 30.5%. The same compound displayed a COX1 %inh on ovine COX-1 (conc 100 (μM)) of 68.5%. Moreover, the “DPPH test results (µM trolox equivalent/ 1mg sample ± SD)” value in “DPPH free radical assay” is given as 14.38 ± 0.85 µM trolox equivalent/ 1mg sample. For the same compound, the TNF-α fold change in series [1] is 0.71. On 5-LOX enzyme, the half-maximal inhibitory concentration (IC50) came out at 14.8 ± 0.78 µM. For the same compound, the 5-LOX %inh on 5-LOX enzyme (conc 0.1 (μM)) was 5.27%. At 5-LOX enzyme (conc 1 (μM)), this compound showed a 5-LOX %inh of 16.1%. In addition, the 5-LOX %inh at 5-LOX enzyme (conc 10 (μM)) was determined as 36.1%. The compound also had a 5-LOX %inh at 5-LOX enzyme (conc 100 (μM)) of 78.4%.

For the compound `Cc1ccc(NC(=S)N/N=C/c2cn(S(C)(=O)=O)c3ccccc23)cc1` [Compound 4d, (E)-2{[1-(methylsulfonyl)-1H-indol-3yl]methylene}-N-(p-tolyl)hydrazinecarbothioamide], the melting point was in the range of 237 to 239 °C. In addition, on COX-2, the “S.I (IC50 COX-1/IC50 COX-2)” value is on record as 2.38 and the SI is on record as 2.375. The IC50 against ovine COX-1 (IC50 COX-1) turned out to be 17.1 ± 0.49 µM. Further, on ovine COX-1 (conc 0.1 (μM)), the COX1 %inh was found to be 7.22%. The same compound came in with a COX1 %inh on ovine COX-1 (conc 1 (μM)) of 13.4%. The COX1 %inh at ovine COX-1 (conc 10 (μM)) is reported as 36.4%. Besides, the COX1 %inh on ovine COX-1 (conc 100 (μM)) was determined as 75.8%. For the same compound, the “DPPH test results (µM trolox equivalent/ 1mg sample ± SD)” value in “DPPH free radical assay” is recorded as 389.82 ± 19.25 µM trolox equivalent/ 1mg sample. The DPPH anti-oxidant activity in the series “DPPH free radical assay” (values in text) came out at 389.82 µM Trolox equivalent/mg. Further, in series [1], the TNF-α fold change was 0.19. In addition, the IC50 at 5-LOX enzyme worked out at 17.9 ± 0.95 µM. This compound displayed a 5-LOX %inh on 5-LOX enzyme (conc 0.1 (μM)) of 4.88%. Also, on 5-LOX enzyme (conc 1 (μM)), the 5-LOX %inh is 12.5%. Also, the 5-LOX %inh at 5-LOX enzyme (conc 10 (μM)) is 33.7%. The compound also registered a 5-LOX %inh at 5-LOX enzyme (conc 100 (μM)) of 77.2%.

Consider `CS(=O)(=O)n1cc(/C=N/N=C2/NCC(=O)S2)c2ccccc21` [Compound 5a], for which the “S.I (IC50 COX-1/IC50 COX-2)” value at COX-2 worked out at 0.59. Besides, on COX-2, the SI came out at 0.592. Moreover, the COX1 %inh came out at 13.6% on ovine COX-1 (conc 0.1 (μM)), 32.4% at ovine COX-1 (conc 1 (μM)), 59% at ovine COX-1 (conc 10 (μM)) and 85.6% on ovine COX-1 (conc 100 (μM)). Also, the IC50 at ovine COX-1 (read-out: IC50 COX-1) was 3.95 ± 0.11 µM; at 5-LOX enzyme, 9.23 ± 0.49 µM. In the series “DPPH free radical assay”, the “DPPH test results (µM trolox equivalent/ 1mg sample ± SD)” value is listed as 12.71 ± 1.16 µM trolox equivalent/ 1mg sample. For the same compound, the TNF-α fold change in series [1] is 0.66. Moreover, the 5-LOX %inh is listed as 7.21% on 5-LOX enzyme (conc 0.1 (μM)), 17.4% on 5-LOX enzyme (conc 1 (μM)), 50.3% at 5-LOX enzyme (conc 10 (μM)) and 79% on 5-LOX enzyme (conc 100 (μM)).

Take `COc1ccc2c(c1)c(CC(=O)O)c(C)n2C(=O)c1ccc(Cl)cc1` [Indomethacin, reference compound]: the stomach histopathology finding result in the series on stomach is “multiple complete and perforating ulcers and superficial erosions”.
